According to publication PMC9668655 (Computational and Structural Biotechnology Journal, 2022):
pIC50, pKd: −log10 of the molar value.

Experiments:
RSL-MOA [1] = assay type: binding, Ralstonia nicotianae; Marasmius oreades; conditions: 50 nM RSL-MOA pre-incubated with fucose; 10 mM HEPES pH 7.5, 100 mM NaCl, 0.05 % Tween 20, 25 °C; RSL site; competitive with immobilised fucose
RSL-MOA [2] = assay type: binding, Ralstonia nicotianae; Marasmius oreades; conditions: 20 mM Tris/HCl pH 7.5, 100 mM NaCl, 25 °C, one-site model, titrated into the RSL-MOA/Galα1-3Gal complex
RSL = RSL (Ralstonia pseudosolanacearum, UniProt Q8XXK6); conditions: 250 µM; 250 μM ligand, 25 μM protein; absolute Tm1, not a shift (ligand-free reference in the 2nd table, row 4); 20 mM Tris/HCl pH 7.5, 100 mM NaCl

SMILES	pIC50 (RSL-MOA [1])	pKd (RSL-MOA [2])	Tm1 (°C) (RSL)
C[C@@H]1OC(O)[C@@H](O)[C@H](O)[C@@H]1O (stereo partly drawn) [L-fucose]	5.11	–	–
CO[C@@H]1O[C@@H](C)[C@@H](O)[C@@H](O)[C@@H]1O [α-methyl fucoside]	–	6.40	101.6
